In patent publication US20240300937A1, “Substituted 6-(Pyrimidin-4-yl)Quinoline Compounds as Cyclin Dependent Kinase Inhibitors” (BeiGene, Ltd., priority 2022, published 2024) one finds IC50 data, which are given here for nine compounds.

In one experiment the target is CDK6/Cyclin D3 (Homo sapiens (Human), UniProt Q00534). As to the kind of experiment: CDK6/Cyclin D3 kinase TR-FRET inhibition assay. The class given is biochemical. The conditions noted are these: 1 mM ATP, Rb (Ser780)-biotin substrate, read-out: CDK6D3 IC50. The essentials:
(§1)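 Kinase preincubated 60 min at room temperature with 0–10 μM compound; reaction started with 1 mM ATP and 0.15 μM Rb (Ser780)-biotin, run 120 min at room temperature in HEPES pH 7.0, 50 mM MgCl2. pRb detected by TR-FRET (665/620 nm ratio); IC50 from four-parameter logistic fit.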
(Time-resolved FRET reads energy transfer from a long-lived donor to a nearby acceptor.)

A further experiment deals with CDK4/Cyclin D1 (Homo sapiens (Human), UniProt P11802). As to the kind of experiment: CDK4/Cyclin D1 kinase TR-FRET inhibition assay. The class given is biochemical. Particulars: 1 mM ATP, Rb (Ser780)-biotin substrate, read-out: CDK4D1 IC50. The method in brief:
as §1

As a reminder, the IC50 is the concentration needed to halve the response being measured.

Chain of CDK6/Cyclin D3 (Q00534 whole entry): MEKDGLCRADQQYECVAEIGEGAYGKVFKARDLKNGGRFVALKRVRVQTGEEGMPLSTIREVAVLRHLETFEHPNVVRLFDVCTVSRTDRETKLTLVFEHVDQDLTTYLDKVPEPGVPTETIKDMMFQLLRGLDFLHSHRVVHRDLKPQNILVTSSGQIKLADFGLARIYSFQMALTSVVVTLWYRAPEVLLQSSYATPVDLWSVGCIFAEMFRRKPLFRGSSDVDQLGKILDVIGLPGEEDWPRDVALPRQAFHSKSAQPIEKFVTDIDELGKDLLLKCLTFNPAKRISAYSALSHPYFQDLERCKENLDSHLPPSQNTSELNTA
Chain of CDK6/Cyclin D3 (P30281 whole entry partner): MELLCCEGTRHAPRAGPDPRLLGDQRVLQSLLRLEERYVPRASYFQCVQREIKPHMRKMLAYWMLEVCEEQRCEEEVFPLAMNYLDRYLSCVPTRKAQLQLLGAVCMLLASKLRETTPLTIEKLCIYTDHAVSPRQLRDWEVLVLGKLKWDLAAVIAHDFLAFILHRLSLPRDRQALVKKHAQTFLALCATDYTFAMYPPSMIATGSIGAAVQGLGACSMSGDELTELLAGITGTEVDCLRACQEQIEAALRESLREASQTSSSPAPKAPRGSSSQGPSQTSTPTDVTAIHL
Chain of CDK4/Cyclin D1 (P11802 whole entry): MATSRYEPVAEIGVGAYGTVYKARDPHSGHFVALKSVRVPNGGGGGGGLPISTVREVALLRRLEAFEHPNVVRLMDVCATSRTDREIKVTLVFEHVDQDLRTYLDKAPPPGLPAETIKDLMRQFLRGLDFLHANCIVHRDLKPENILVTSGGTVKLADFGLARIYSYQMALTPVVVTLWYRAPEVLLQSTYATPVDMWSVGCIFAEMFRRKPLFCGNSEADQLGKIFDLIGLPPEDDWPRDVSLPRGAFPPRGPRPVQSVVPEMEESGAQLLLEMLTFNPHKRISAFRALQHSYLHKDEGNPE
Chain of CDK4/Cyclin D1 (P24385 whole entry partner): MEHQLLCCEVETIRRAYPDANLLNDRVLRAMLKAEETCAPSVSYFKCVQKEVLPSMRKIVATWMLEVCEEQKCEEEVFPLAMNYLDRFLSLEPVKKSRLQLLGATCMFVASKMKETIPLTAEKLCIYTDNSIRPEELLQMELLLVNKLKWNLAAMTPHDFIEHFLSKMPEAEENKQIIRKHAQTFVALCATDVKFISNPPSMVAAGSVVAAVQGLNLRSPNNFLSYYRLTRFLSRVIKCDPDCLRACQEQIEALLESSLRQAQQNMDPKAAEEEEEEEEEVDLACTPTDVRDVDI

Take `Cc1nc2ccc(-c3nc(N[C@@H]4CCOC[C@H]4O)ncc3F)cc2c(C(C)C)c1CO` [Example 15, (3S,4R)-4-((5-fluoro-4-(3-(hydroxymethyl)-4-isopropyl-2-methylquinolin-6-yl)pyrimidin-2-yl)amino)tetrahydro-2H-pyran-3-ol]: the values for the half-inhibitory concentration (IC50) on CDK6/Cyclin D3 and at CDK4/Cyclin D1 were 0.559 µM and 0.043 µM, respectively.

Turning to `CC(C)c1c(CN[C@H]2CCOC2)cnc2ccc(-c3nc(N[C@@H]4CCOC[C@H]4O)ncc3F)cc12` [Example 39, (3S,4R)-4-((5-fluoro-4-(4-isopropyl-3-((((S)-tetrahydrofuran-3-yl)amino)methyl)quinolin-6-yl)pyrimidin-2-yl)amino)tetrahydro-2H-pyran-3-ol], the IC50 amounted to 0.75 µM on CDK6/Cyclin D3 and 0.025 µM on CDK4/Cyclin D1.

For `CC(C)c1c(CNC2CC(F)(F)C2)cnc2ccc(-c3nc(N[C@@H]4CCOC[C@H]4O)ncc3F)cc12` [Example 20, (3S,4R)-4-((4-(3-(((3,3-difluorocyclobutyl)amino)methyl)-4-isopropylquinolin-6-yl)-5-fluoropyrimidin-2-yl)amino)tetrahydro-2H-pyran-3-ol], the values for the concentration for half-maximal inhibition (IC50) on CDK6/Cyclin D3 and at CDK4/Cyclin D1 were 0.6 µM and 0.012 µM, respectively.

With `CC(C)c1c(CN[C@@H]2CCCOC2)cnc2ccc(-c3nc(N[C@@H]4CCOC[C@H]4O)ncc3F)cc12` [Example 30, (3S,4R)-4-((5-fluoro-4-(4-isopropyl-3-((((R)-tetrahydro-2H-pyran-3-yl)amino)methyl)quinolin-6-yl)pyrimidin-2-yl)amino)tetrahydro-2H-pyran-3-ol], the values for the IC50 at CDK6/Cyclin D3 and at CDK4/Cyclin D1 were 0.55 µM and 0.011 µM, respectively.

Regarding `CC(C)c1c([C@@H](C)N)cnc2ccc(-c3nc(N[C@@H]4CCOC[C@H]4O)ncc3F)cc12` [Example 56, (3S,4R)-4-((4-(3-((R)-1-aminoethyl)-4-isopropylquinolin-6-yl)-5-fluoropyrimidin-2-yl)amino)tetrahydro-2H-pyran-3-ol], the IC50 on CDK6/Cyclin D3 stood at 0.214 µM; at CDK4/Cyclin D1 it was 0.0035 µM.

For `CC(C)c1c(CNC[C@@H]2CCCO2)cnc2ccc(-c3nc(N[C@@H]4CCOC[C@H]4O)ncc3F)cc12` [Example 34, (3S,4R)-4-((5-fluoro-4-(4-isopropyl-3-(((((S)-tetrahydrofuran-2-yl)methyl)amino)methyl)quinolin-6-yl)pyrimidin-2-yl)amino)tetrahydro-2H-pyran-3-ol], the IC50 stood at 0.783 µM on CDK6/Cyclin D3 and 0.027 µM on CDK4/Cyclin D1.

Turning to `CC(C)NCc1cnc2ccc(-c3nc(N[C@@H]4CCOC[C@H]4O)ncc3F)cc2c1C(C)C` [Example 22, (3S,4R)-4-((5-fluoro-4-(4-isopropyl-3-((isopropylamino)methyl)quinolin-6-yl)pyrimidin-2-yl)amino)tetrahydro-2H-pyran-3-ol], the IC50 on CDK6/Cyclin D3 worked out at 0.398 µM; at CDK4/Cyclin D1 it was 0.0071 µM.

On to `Cc1cc(C(C)C)c2cc(-c3nc(N[C@@H]4CCOC[C@H]4O)ncc3Cl)ccc2n1` [Example 5, (3S,4R)-4-((5-chloro-4-(4-isopropyl-2-methylquinolin-6-yl)pyrimidin-2-yl)amino)tetrahydro-2H-pyran-3-ol], for which the figures for the IC50 on CDK6/Cyclin D3 and at CDK4/Cyclin D1 were 0.81 µM and 0.108 µM, respectively.

As for `Cc1c(-c2nc(N[C@@H]3CCOC[C@H]3O)ncc2F)ccc2nccc(C(C)C)c12` [Example 9, (3S,4R)-4-((5-fluoro-4-(4-isopropyl-5-methylquinolin-6-yl)pyrimidin-2-yl)amino)tetrahydro-2H-pyran-3-ol], the IC50 at CDK6/Cyclin D3 was determined as 0.0924 µM; on CDK4/Cyclin D1, 0.021 µM.
